Drawing on ChEMBL document CHEMBL1148482, “Novel benzophenones as non-nucleoside reverse transcriptase inhibitors of HIV-1” (J Med Chem, 2004), this text covers IC50 for 3 compounds.

Each structure is given as a SMILES string. Where only a bound is given, the exact number is not on record here.

The subject of test [1] is Human immunodeficiency virus 1. In words: Antiviral activity against Y188C strain of HIV-1. The class given is functional, organism-based.
The test system of test [2] is Human immunodeficiency virus 1. In words: Antiviral activity against wild-type HIV-1. The class given is functional, organism-based.
Test [3] has as its system Human immunodeficiency virus 1. In words: Antiviral activity against E138K strain of HIV-1. The test is classed as functional, organism-based.
For test [4], the system named is Human immunodeficiency virus 1. In words: Antiviral activity against G190A strain of HIV-1. The test is classed as functional, organism-based.
Test [5] deals with Human immunodeficiency virus 1. In words: Antiviral activity against K101E strain of HIV-1. The class given is functional, organism-based.
The subject of test [6] is Human immunodeficiency virus 1. In words: Antiviral activity against K103N strain of HIV-1. The class given is functional, organism-based.
The test system of test [7] is Human immunodeficiency virus 1. In words: Antiviral activity against K103N/G190A strain of HIV-1. The test is classed as functional, organism-based.
The subject of test [8] is Human immunodeficiency virus 1. In words: Antiviral activity against K103N/L100I strain of HIV-1. The test is classed as functional, organism-based.
Test [9] concerns Human immunodeficiency virus 1. In words: Antiviral activity against K103N/P225H strain of HIV-1. The class given is functional, organism-based.
The subject of test [10] is Human immunodeficiency virus 1. In words: Antiviral activity against K103N/V108I strain of HIV-1. The class given is functional, organism-based.
Test [11] deals with Human immunodeficiency virus 1. In words: Antiviral activity against K103N/Y181C strain of HIV-1. The test is classed as functional, organism-based.
For test [12], the system named is Human immunodeficiency virus 1. In words: Antiviral activity against P225H strain of HIV-1. The test is classed as functional, organism-based.
Test [13] deals with Human immunodeficiency virus 1. In words: Antiviral activity against P236L strain of HIV-1. The test is classed as functional, organism-based.
The subject of test [14] is Human immunodeficiency virus 1. In words: Antiviral activity against V106A strain of HIV-1. The class given is functional, organism-based.
Test [15] deals with Human immunodeficiency virus 1. In words: Antiviral activity against V106A/Y181C strain of HIV-1. The test is classed as functional, organism-based.
The test system of test [16] is Human immunodeficiency virus 1. In words: Antiviral activity against V106I strain of HIV-1. The test is classed as functional, organism-based.
For test [17], the system named is Human immunodeficiency virus 1. In words: Antiviral activity against V106I/Y181C strain of HIV-1. The class given is functional, organism-based.
The subject of test [18] is Human immunodeficiency virus 1. In words: Antiviral activity against V108I strain of HIV-1. The class given is functional, organism-based.
Test [19] has as its system Human immunodeficiency virus 1. In words: Antiviral activity against V108I/Y181C strain of HIV-1. The test is classed as functional, organism-based.
Test [20] relates to Human immunodeficiency virus 1. In words: Antiviral activity against Y181C strain of HIV-1. The test is classed as functional, organism-based.
Test [21] deals with MT4. In words: Antiviral activity against MT-4 cells infected with Nev-R strain of HIV-1. The conditions noted are these: Homo sapiens.
The test system of test [22] is MT4. In words: Antiviral activity against MT-4 cells infected with wild-type HIV-1. The conditions noted are these: Homo sapiens.
The subject of test [23] is Human immunodeficiency virus 1. In words: Antiviral activity against L100I strain of HIV-1. The test is classed as functional, organism-based.

As for `CC(C)Nc1cccnc1N1CCN(C(=O)c2cc3cc(NS(C)(=O)=O)ccc3[nH]2)CC1` [DELAVIRDINE], the IC50 in test [1] came to 170 nM; in test [2], 200 nM; in [3] it was 10 nM; in [4], 35 nM; in test [5], 29 nM; in test [6], 2700 nM. Moreover, the IC50 was 2700 nM in test [7]; above 8400 nM in test [8]; 2300 nM in test [9]; 3500 nM in test [10]; above 8400 nM in test [11]; 11 nM in [12]. Also, the IC50 was 1600 nM in [13]; 900 nM in test [14]; above 10000 nM in test [15]; 55 nM in [16] (read-out: IC50); 4500 nM in test [17]; 78 nM in test [18]. For the same compound, the half-inhibitory concentration (IC50) is above 10000 nM in test [19]; 2300 nM in [20]; 2400 nM with MT4 [21]; 160 nM with MT4 [22]; 920 nM in test [23].
For `O=C1Nc2ccc(Cl)cc2[C@@](C#CC2CC2)(C(F)(F)F)O1` [EFAVIRENZ], the IC50 was 2.7 nM in the test with MT4 [21] and 3.5 nM in the test with MT4 [22].
For `Cc1ccnc2c1NC(=O)c1cccnc1N2C1CC1` [NEVIRAPINE], the IC50 in [1] was 2300 nM; in [2], 100 nM; in test [3], 65 nM; in [4] it was above 10000 nM; in test [5], 520 nM; in [6], 6600 nM. The IC50 in test [7] was above 10000 nM; in test [8] it was 8000 nM; in [9], 9800 nM; in test [10], 15000 nM; in test [11], above 10000 nM; in test [12], 1200 nM. The IC50 in [13] is 56 nM; in test [14], 9000 nM; in test [15] it was above 10000 nM; in test [16], 150 nM; in [17], above 10000 nM; in [18], 290 nM. The IC50 in test [19] was above 10000 nM; in test [20] it was 9400 nM; in the test with MT4 [21], 17200 nM; in the test on MT4 [22] it was 96 nM; in [23], 500 nM.
